Laboratory results reported in patent publication EP3290040A1, “PROPHYLACTIC AND THERAPEUTIC AGENT FOR COMPLICATIONS AFTER CATARACT SURGERY” (Honjo, Megumi, priority 2015, dated 2016).

Legend:
Assay type in all cases: cell-based
[1] = tested on: Human lens epithelial cells (SRA 01/04); test: Cell proliferation (DNA synthesis ability) of lens epithelial cells, BrdU incorporation ELISA; settings: SRA 01/04 cells, 24 hours, FIG. 1
Description: Human lens epithelial cells (SRA 01/04 (RIKEN Cell Bank)) were cultured using 20% FBS-DMEM medium under conditions at 37°C and 5% CO2. The concentration of SRA 01/04 cells was adjusted using 2% FBS-DMEM medium, and the cells were seeded in a 96-well plate at 100 µL/well (5000 cells/well) and incubated for 24 hours under conditions at 37°C and 5% CO2. The medium was exchanged to 5% FBS-DMEM medium, to which TGFβ was added at 10 ng/mL (final concentration) or Ripasudil at 10, 30, or 100 µM (final concentration), and then the cells were cultured for another 24 hours. The cell proliferation ELISA, BrdU (colorimetric) kit (Roche) was used to measure the amount of intracellular 5-bromo-2'-deoxyuridine (BrdU) incorporation at a measurement wavelength of 450 nm with Multiskan MS version 8.0 (LABSYSTEMS), thereby to evaluate the effect on the cell proliferation of SRA 01/04 cells.

HT-1080 cell = test: Inhibitory action on collagen gel contraction (cell-containing collagen gel); set-up: key: When a contraction level was almost equal to that of a group to which Ripasudil was not added, (+) was used; (++) was used in the case where contraction was inhibited; (+++) was used in the case where contraction was significantly inhibited; settings: HT1080 collagen gel, observed after two or three days
Description: HT-1080 cell suspension adjusted to a density of 150,000 to 200,000 cells/mL with a medium (medium: E'MEM (Sigma)/10% FBS/NEAA/PCSM), and a solution, obtained by mixing A, B and C solutions (A solution: Cellmatrix (Collagen Type I 3 mg/mL), B solution: concentrated culture medium, 10 x MEM Hank's culture medium, and C solution: buffer for reconstitution) of collagen gel culture kit (Nitta Gelatin Inc.) mixed at a ratio of 8 : 1 : 1 and cooling the obtained mixture, were mixed at a ratio of 1.4 : 1, and the obtained mixture was seeded in a 48 Well Plate at 500 µL/well and gelatinized in a CO2 incubator to produce a cell-containing collagen gel. After gelation, 1 mL of the medium in which Ripasudil was adjusted to 0.1 µM, 1.0 µM or 10.0 µM was added on the gel, and an injection needle was inserted between the gel and the wall surface to release the gel from the wall surface, and the gel was incubated to stand in a CO2 incubator. After two or three days, the contraction of the gel was observed, and photos were taken to evaluate the actions of Ripasudil.

Human normal fibroblasts = test: Fibroblast proliferation, BrdU incorporation (Cell Proliferation ELISA BrdU kit); settings: cultured 2 days, no added Ripasudil = 100%
Description: Human normal fibroblasts (Sanko Junyaku Co., Ltd.) were seeded at 2000 cells/well and cultured overnight. Next day, the medium (FGM-2 (Sanko Junyaku Co., Ltd.)) was exchanged (150 µL) and then Ripasudil was added in a volume of 10 µL to make final concentrations of 0.1 µM, 1.0 µM, and 10.0 µM. […] Fixation and antibody addition, washing and color development, and reaction stopping were performed according to the protocol of the Cell Proliferation ELISA BrdU kit (Roche). Then, a plate reader was used to measure OD540-620 to evaluate the action of Ripasudil on fibroblast proliferation. […]

How did the “DNA synthesis of human lens epithelial cells” value ([1]; Ripasudil 30 µM) turn out when C[C@H]1CNCCCN1S(=O)(=O)c1cccc2cncc(F)c12 [Ripasudil, 4-fluoro-5-{[(2S)-2-methyl-1,4-diazepan-1-yl]sulfonyl}isoqu inoline] was run?
The value was “statistically significant decrease”.

What about the “DNA synthesis of human lens epithelial cells” value ([1]; Ripasudil 10, 30 or 100 µM) of the same molecule?
Its value is “dose-dependent inhibitory action”.

And the Inhibition of contraction (HT-1080 cell; Ripasudil 0.1 µM)?
Its Inhibition of contraction is “+”.

What about the Inhibition of contraction (HT-1080 cell; Ripasudil 1.0 µM) of the same molecule?
Its Inhibition of contraction is “++”.

What about the Inhibition of contraction (HT-1080 cell; Ripasudil 10.0 µM) of the same molecule?
The Inhibition of contraction was “+++”.

What about the “BrdU incorporation (% of control)” value (Human normal fibroblasts; Ripasudil 0.1 µM) of the same molecule?
Its value is 80.0 % of control.

What about the “BrdU incorporation (% of control)” value (Human normal fibroblasts; Ripasudil 1.0 µM) of the same molecule?
The value was 59.3 % of control.

What about the “BrdU incorporation (% of control)” value (Human normal fibroblasts; Ripasudil 10.0 µM) of the same molecule?
The value was 10.9 % of control.
